Like-named read-outs stand apart in the source and are kept apart here.
Columns and labels:
HIV-1MDR/MM = test: microbe, parasite or virus in culture; type: cell-based; details: for EC50: Human immunodeficiency virus 1, read-out: EC50 (μM), HIV-1MDR/MM (NSI); for n-fold change of EC50, HIV-1MDR/MM: compared to wild-type HIV-1ERS104pre
Protocol: (§1) The susceptibility of HIV-1LAI and primary HIV-1 isolates to various drugs were determined as described previously (Koh et al. 2003 Antimicrob Agents Chemother 47:3123-9). Briefly, MT-2 cells (2×10^4/ml) were exposed to 100 50% tissue culture infectious doses (TCID50S) of HIV-1LAI, in the presence or absence of various concentrations of drugs in 96-well microculture plates and were incubated at 37° C. for 7 days. After 100 μl of the medium was removed from each well, 3-(4,5-dimetylthiazol-2-yl)-2,5-diphenyltetrazolium bromide (MTT) solution (10 μl, 7.5 mg/ml in phosphate-buffered saline) was added to each well in the plate, followed by incubation at 37° C. for 3 h. […] All assays were performed in duplicate or triplicate. To determine the susceptibility of primary HIV-1 isolates to drugs, phytohemagglutinin-activated peripheral blood mononuclear cells (PHA-PBMCs; 106/ml) were exposed to 50 TCID50S of each. The target cells were exposed to HIV-1104pre or drug-resistant HIV-1 in the presence or absence of various concentrations of drugs and were incubated for 7 days. Upon the conclusion of the culture, the amounts of p24 Gag protein in the supernatants were determined using a fully automated chemiluminescent enzyme immunoassay system (Lumipulse F; Fujirebio Inc., Tokyo, Japan) (Maeda et al. 2001 J Biol Chem 276:35194-200). To determine the drug susceptibility of certain laboratory HIV-1 strains, MT-4 cells were used as target cells. In brief, MT-4 cells (10^5/ml) were exposed to 100 TCID50S of drug-resistant HIV-1 strains in the presence or absence of various concentrations of drugs and on day 7 of culture, the supernatant was harvested and the amounts of p24 Gag protein were determined. […] All assays were performed in duplicate or triplicate.
(§2) These clinical strains contained 9 to 14 amino acid substitutions in the protease-encoding region, which have reportedly been associated with HIV-1 resistance to various PIs.
(§3) Amino acid substitutions identified in the protease-encoding region compared to the consensus type B sequence cited from the Los Alamos database include L63P in HIV-1ERS104pre; L10I, K14R, L33I, M36I, M46I, F53I, K55R, I62V, L63P, A71V, G73S, V82A, L90M, and I93L in HIV-1MDR/B; L10I, I15V, K20R, L24I, M36I, M46L, I54V, I62V, L63P, K70Q, V82A, and L89M in HIV-1MDR/C; L10I, V11I, T12E, I15V, L19I, R41K, M46L, L63P, A71T, V82A, and L90M in HIV-1MDR/G; L10I, K14R, R41K, M46L, I54V, L63P, A71V, V82A, L90M, I93L in HIV-1MDR/TM; L10I, K43T, M46L, I54V, L63P, A71V, V82A, L90M, and Q92K in HIV-1MDR/MM; L10I, L24I, I33F, E35D, M36I, N37S, M46L, I54V, R57K, I62V, L63P, A71V, G73S, and V82A in HIV-1MDR/JSL. HIV-1ERS104pre served as a source of wild-type HIV-1. EC50s were determined by using PHA-PBMs as target cells, and inhibition of p24 Gag protein production by each drug was used as an end point. Numbers in parentheses represent n-fold changes of EC50s for each isolate compared to EC50s for wild-type HIV-1ERS104pre.

HIV-1MDR/JSL = test: microbe, parasite or virus in culture; type: cell-based; details: for EC50: Human immunodeficiency virus 1, read-out: EC50 (μM), HIV-1MDR/JSL (NSI); for n-fold change of EC50, HIV-1MDR/JSL: compared to wild-type HIV-1ERS104pre
Protocol: as §1, §2, §3

[1] = system: multidrug-resistant clinical HIV-1 isolates (HIV-1MDR); test: microbe, parasite or virus in culture; type: cell-based; details: Human immunodeficiency virus 1, read-out: EC50 with multidrug-resistant clinical HIV-1 isolates (mostly)
Protocol: as §1, §2, §3

HIV-1MDR/TM = type: cell-based; details: for EC50 (μM), HIV-1MDR/TM (SI): PHA-PBMCs, p24 Gag; for n-fold change of EC50, HIV-1MDR/TM: compared to wild-type HIV-1ERS104pre
Protocol: as §1, §2, §3

HIV-1MDR/G = type: cell-based; details: for EC50 (μM), HIV-1MDR/G (SI): PHA-PBMCs, p24 Gag; for n-fold change of EC50, HIV-1MDR/G: compared to wild-type HIV-1ERS104pre
Protocol: as §1, §2, §3

HIV-1MDR/C = type: cell-based; details: for EC50 (μM), HIV-1MDR/C (SI): PHA-PBMCs, p24 Gag; for n-fold change of EC50, HIV-1MDR/C: compared to wild-type HIV-1ERS104pre
Protocol: as §1, §2, §3

HIV-1MDR/B = type: cell-based; details: for EC50 (μM), HIV-1MDR/B (SI): PHA-PBMCs, p24 Gag; for n-fold change of EC50, HIV-1MDR/B: compared to wild-type HIV-1ERS104pre
Protocol: as §1, §2, §3

[2] = system: HIV-1ERS104pre (wild-type); test: p24 Gag inhibition in PHA-PBMCs, HIV-1ERS104pre; type: cell-based; details: mean ± 1 SD
Protocol: as §1, §2, §3

HIV-1NL4-3 = test: p24 Gag inhibition in MT-4 cells, HIV-1NL4-3; type: cell-based
Protocol: All assays were performed in duplicate or triplicate. […] All assays were performed in duplicate or triplicate.

HIV-1LPV5μM = test: microbe, parasite or virus in culture; type: cell-based; details: for EC50: Human immunodeficiency virus 1, MT4, read-out: EC50 (μM), HIV-1LPV5 μM
Protocol: as §1
(§4) Numbers in parentheses represent n-fold changes in EC50s for each isolate compared to the EC50s for wild-type HIV-1NL4-3.

HIV-1AZV5μM = test: microbe, parasite or virus in culture; type: cell-based; details: for EC50: Human immunodeficiency virus 1, MT4, read-out: EC50 (μM), HIV-1AZV5 μM
Protocol: as §1, §4

HIV-1NFV5μM = test: microbe, parasite or virus in culture; type: cell-based; details: for EC50: Human immunodeficiency virus 1, MT4, read-out: EC50 (μM), HIV-1NPV5 μM
Protocol: as §1, §4

HIV-1SQV5μM = test: microbe, parasite or virus in culture; type: cell-based; details: for EC50: Human immunodeficiency virus 1, MT4, read-out: EC50 (μM), HIV-1SQV5 μM
Protocol: as §1, §4

HIV-1APV5μM = test: microbe, parasite or virus in culture; type: cell-based; details: for EC50: Human immunodeficiency virus 1, MT4, read-out: EC50 (μM), HIV-1APV5 μM
Protocol: as §1, §4

HIV-1396-1μM = test: microbe, parasite or virus in culture; type: cell-based, HIV-1; details: Human immunodeficiency virus 1, MT4, read-out: EC50 (μM), HIV-1396-1 μM
Protocol: (§5) Briefly, MT-2 cells (2×10^4/ml) were exposed to 100 50% tissue culture infectious doses (TCID50S) of HIV-1LAI, in the presence or absence of various concentrations of drugs in 96-well microculture plates and were incubated at 37° C. for 7 days. After 100 μl of the medium was removed from each well, 3-(4,5-dimetylthiazol-2-yl)-2,5-diphenyltetrazolium bromide (MTT) solution (10 μl, 7.5 mg/ml in phosphate-buffered saline) was added to each well in the plate, followed by incubation at 37° C. for 3 h. […] All assays were performed in duplicate or triplicate. […] To determine the drug susceptibility of certain laboratory HIV-1 strains, MT-4 cells were used as target cells. In brief, MT-4 cells (10^5/ml) were exposed to 100 TCID50S of drug-resistant HIV-1 strains in the presence or absence of various concentrations of drugs and on day 7 of culture, the supernatant was harvested and the amounts of p24 Gag protein were determined. […] All assays were performed in duplicate or triplicate.
as §4

HIV-1216-P50 = test: microbe, parasite or virus in culture; type: cell-based, HIV-1; details: Human immunodeficiency virus 1, MT4, read-out: EC50 (μM), HIV-1216-p50
Protocol: as §5, §4

HIV-1246-1μM = test: microbe, parasite or virus in culture; type: cell-based, HIV-1; details: Human immunodeficiency virus 1, MT4, read-out: EC50 (μM), HIV-1246-1 μM
Protocol: as §5, §4

[3] = compared to wild-type HIV-1NL4-3

Row | SMILES | EC50 (HIV-1MDR/MM) [µM] | n-fold change of EC50, HIV-1MDR/MM (HIV-1MDR/MM) | EC50 (HIV-1MDR/JSL) [µM] | n-fold change of EC50, HIV-1MDR/JSL (HIV-1MDR/JSL) | EC50 (μM), HIV-1MDR/TM (SI) (HIV-1MDR/TM) [µM] | n-fold change of EC50, HIV-1MDR/TM (HIV-1MDR/TM) | EC50 (μM), HIV-1MDR/G (SI) (HIV-1MDR/G) [µM] | n-fold change of EC50, HIV-1MDR/G (HIV-1MDR/G) | EC50 (μM), HIV-1MDR/C (SI) (HIV-1MDR/C) [µM] | n-fold change of EC50, HIV-1MDR/C (HIV-1MDR/C) | EC50 (μM), HIV-1MDR/B (SI) (HIV-1MDR/B) [µM] | n-fold change of EC50, HIV-1MDR/B (HIV-1MDR/B) | EC50 (μM), HIV-1ERS104pre (wild-type SI) [2] [µM] | EC50 (HIV-1LPV5μM) [µM] | EC50 (HIV-1AZV5μM) [µM] | EC50 (HIV-1NFV5μM) [µM] | EC50 (HIV-1SQV5μM) [µM] | EC50 (HIV-1APV5μM) [µM] | further results
1 | CC(C)(C)NC(=O)[C@@H]1CN(Cc2cccnc2)CCN1C[C@@H](O)C[C@@H](Cc1ccccc1)C(=O)N[C@H]1c2ccccc2C[C@H]1O [IDV, Indinavir] | > 1 | > 23 | > 1 | > 23 | > 1 | > 23 | 0.34 ± 0.14 | (5) | > 1 | > 23 | > 1 | > 23 | 0.043 ± 0.004 |  |  |  |  |  | EC50 [1]: > 1000 nM
2 | Cc1c(O)cccc1C(=O)N[C@@H](CSc1ccccc1)[C@H](O)CN1C[C@H]2CCCC[C@H]2C[C@H]1C(=O)NC(C)(C)C [NFV, Nelfinavir] |  |  |  |  |  |  |  |  |  |  |  |  |  | 0.32 ± 0.12 | > 1 | > 1 | 0.51 ± 0.081 | 0.3 ± 0.03 | EC50 (HIV-1NL4-3; Human immunodeficiency virus 1, MT4, Table 9, mean ± 1 SD, read-out: EC50 (μM), HIV-1NL4-3): 0.04 ± 0.007 µM; EC50 (HIV-1396-1μM): 0.22 ± 0.02 µM; EC50 (HIV-1216-P50): 0.13 ± 0.04 µM; EC50 (HIV-1246-1μM): 0.29 ± 0.006 µM
3 | CC(C)(C)NC(=O)[C@@H]1C[C@@H]2CCCC[C@@H]2CN1C[C@@H](O)[C@H](Cc1ccccc1)NC(=O)[C@H](CC(N)=O)NC(=O)c1ccc2ccccc2n1 [SQV, Saquinavir] | 0.19 ± 0.05 | (24) | 0.3 ± 0.02 | (37) | 0.26 ± 0.04 | (33) | 0.030 ± 0.002 | (4) | 0.032 ± 0.002 | (11) | 0.27 ± 0.073 | (34) | 0.008 ± 0.005 | 0.028 ± 0.007 | 0.031 ± 0.005 | 0.003 ± 0.002 | > 1 | 0.026 ± 0.01 | EC50 (HIV-1NL4-3; Human immunodeficiency virus 1, MT4, read-out: EC50 (μM), HIV-1NL4-3, Table 7, mean ± 1 SD): 0.005 ± 0.002 µM; n-fold change in EC50, HIV-1LPV5 μM (HIV-1LPV5μM; [3]): (6); n-fold change in EC50, HIV-1AZV5 μM (HIV-1AZV5μM; [3]): (6); n-fold change in EC50, HIV-1NPV5 μM (HIV-1NFV5μM; [3]): (1); n-fold change in EC50, HIV-1SQV5 μM (HIV-1SQV5μM; [3]): > 200; n-fold change in EC50, HIV-1APV5 μM (HIV-1APV5μM; [3]): (5)
